The structures appear in SMILES notation. Read-outs that look alike come from different tables or passages of the source.

Assay [1] concerns the target T1, hamster SUR1 (Cricetus cricetus, UniProt Q09427).
T1 construct: expressed in transfected cells; host or cells: COS-1 cells, transient (pcDNA vector)
Nature of the assay: In vitro binding affinity to rodent KATP channels: SUR1 ([3H]glibenclamide displacement, COS cell membranes).

In assay [2] the test system is rat perifused pancreatic islets. Briefly: KATP opening effects through insulin secretion in rat perifused pancreatic islets. It counts as cell-based. Particulars: 11 mM glucose; for % Inhibition 0-30 (insulin secretion): 0-30 minutes; for % Inhibition 30-60 (insulin secretion): 30-60 minutes.
Experimental: Determination of the KATP Opening Effects of Compounds Through Insulin Secretion in Rat Perifused Pancreatic Islets
The animals were maintained on a 12 h light-dark cycle (lights on 06.00-18.00 h) with free access to standard rodent diet (B&K Universal Ltd standard rat and mouse diet (BK 001P), Beekay Feeds, B&K Universal Ltd, Hull, East Riding of Yorkshire) and tap water. The rats were conditioned to this environment for at least one week before experimentation.
Experimental procedures: After the rats were sacrificed, the branch of the bile duct leading to the liver and the duodenal end of the duct in the pancreas were clamped and the pancreas distended by injection of ice-cold 0.9 mg/ml collagenase solution into the bile duct. […] Following incubation, 10 ml of cold buffer was added and the suspension shaken vigorously by hand for 1 min. The islets were allowed to settle for 5 min on ice and washed three times using ice-cold buffer. Well-formed and good-sized islets from three rats were hand-picked (under a low power microscope) and pooled and a final selection of islet transferred to the perifusion apparatus.
Two experiments were performed in parallel in two identical, independent sets of perifusion apparatus each consisting of sufficient number of chambers. Each chamber was loaded with 20 hand-picked islets. Islets were perifused for an initial 30 min period in media containing 4 mM glucose. Perifusate was then collected at 2 min intervals for the remainder of the experiment. […] Perifusate fractions were stored at −75° C. until required for insulin assay. Insulin content of fractions were assayed using a 96-well ELISA assay (Mercodia). Initial insulin assays were performed in triplicate on three pooled fractions from each chamber.
Data were initially expressed as a simple mean of the three experiments for insulin secretion (pg/islet/min) and multiple t-tests (against the corresponding vehicle time period) used to determine potential significant effects of treatments. Alternatively, data were also calculated as a % vehicle effect for each experimental day. This latter approach was deemed to be the more powerful analysis as it corrected for the day to day variation in insulin release from the islets.
For assay [3], the target named is human cannabinoid CB2 receptor (Homo sapiens, UniProt P34972). Nature of the assay: biochemical. It counts as binding. How it is done: 3. In Vitro Binding Affinity of the Test Compounds to CB2 Receptors
Chain of human cannabinoid CB2 receptor (P34972 whole entry): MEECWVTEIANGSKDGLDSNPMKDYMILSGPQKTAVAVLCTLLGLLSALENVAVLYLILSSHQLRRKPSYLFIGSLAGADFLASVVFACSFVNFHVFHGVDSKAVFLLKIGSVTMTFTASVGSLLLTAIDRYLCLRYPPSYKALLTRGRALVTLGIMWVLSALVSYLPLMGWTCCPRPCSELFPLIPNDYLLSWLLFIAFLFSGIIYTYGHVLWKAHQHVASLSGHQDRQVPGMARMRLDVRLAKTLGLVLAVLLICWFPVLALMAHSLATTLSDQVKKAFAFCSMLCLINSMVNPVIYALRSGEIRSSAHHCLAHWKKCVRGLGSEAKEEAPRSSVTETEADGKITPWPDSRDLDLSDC
After incubation of a freshly prepared cell membrane preparation with the [^3H]-ligand, with or without the addition of the compounds described herein, separation of bound and free ligand is performed by filtration over glass-fiber filters. Radioactivity on the filter is measured by liquid scintillation counting.

The target of assay [4] is rat SUR2A (Rattus norvegicus, UniProt Q63563). Nature of the assay: In vitro binding affinity to rodent KATP channels: SUR2A ([3H]P1075 / [3H]glibenclamide displacement, COS cell membranes). An outline of the steps:
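COS-cell membranes transiently expressing rat SUR2A incubated 1 h at room temperature in 50 mM Tris pH 7.4, ~0.7 mM free Mg2+, with 3 nM [3H]P1075 (wild type) or [3H]glibenclamide (SUR2AY1205S); filtration read-out. Ki from IC50, reported as pKi; 9-15 concentrations per curve.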

Setting [5] is: hamster SUR1 in COS cell membranes, read-out: Affinity to SUR 1 (converted).
The mark [6] stands for this setting: cloned human CB2 receptor expressed in CHO cells, read-out: Affinity to CB2 (converted).
[7] abbreviates: rat SUR2A in COS cell membranes.

T1 sequence (Q09427 whole entry): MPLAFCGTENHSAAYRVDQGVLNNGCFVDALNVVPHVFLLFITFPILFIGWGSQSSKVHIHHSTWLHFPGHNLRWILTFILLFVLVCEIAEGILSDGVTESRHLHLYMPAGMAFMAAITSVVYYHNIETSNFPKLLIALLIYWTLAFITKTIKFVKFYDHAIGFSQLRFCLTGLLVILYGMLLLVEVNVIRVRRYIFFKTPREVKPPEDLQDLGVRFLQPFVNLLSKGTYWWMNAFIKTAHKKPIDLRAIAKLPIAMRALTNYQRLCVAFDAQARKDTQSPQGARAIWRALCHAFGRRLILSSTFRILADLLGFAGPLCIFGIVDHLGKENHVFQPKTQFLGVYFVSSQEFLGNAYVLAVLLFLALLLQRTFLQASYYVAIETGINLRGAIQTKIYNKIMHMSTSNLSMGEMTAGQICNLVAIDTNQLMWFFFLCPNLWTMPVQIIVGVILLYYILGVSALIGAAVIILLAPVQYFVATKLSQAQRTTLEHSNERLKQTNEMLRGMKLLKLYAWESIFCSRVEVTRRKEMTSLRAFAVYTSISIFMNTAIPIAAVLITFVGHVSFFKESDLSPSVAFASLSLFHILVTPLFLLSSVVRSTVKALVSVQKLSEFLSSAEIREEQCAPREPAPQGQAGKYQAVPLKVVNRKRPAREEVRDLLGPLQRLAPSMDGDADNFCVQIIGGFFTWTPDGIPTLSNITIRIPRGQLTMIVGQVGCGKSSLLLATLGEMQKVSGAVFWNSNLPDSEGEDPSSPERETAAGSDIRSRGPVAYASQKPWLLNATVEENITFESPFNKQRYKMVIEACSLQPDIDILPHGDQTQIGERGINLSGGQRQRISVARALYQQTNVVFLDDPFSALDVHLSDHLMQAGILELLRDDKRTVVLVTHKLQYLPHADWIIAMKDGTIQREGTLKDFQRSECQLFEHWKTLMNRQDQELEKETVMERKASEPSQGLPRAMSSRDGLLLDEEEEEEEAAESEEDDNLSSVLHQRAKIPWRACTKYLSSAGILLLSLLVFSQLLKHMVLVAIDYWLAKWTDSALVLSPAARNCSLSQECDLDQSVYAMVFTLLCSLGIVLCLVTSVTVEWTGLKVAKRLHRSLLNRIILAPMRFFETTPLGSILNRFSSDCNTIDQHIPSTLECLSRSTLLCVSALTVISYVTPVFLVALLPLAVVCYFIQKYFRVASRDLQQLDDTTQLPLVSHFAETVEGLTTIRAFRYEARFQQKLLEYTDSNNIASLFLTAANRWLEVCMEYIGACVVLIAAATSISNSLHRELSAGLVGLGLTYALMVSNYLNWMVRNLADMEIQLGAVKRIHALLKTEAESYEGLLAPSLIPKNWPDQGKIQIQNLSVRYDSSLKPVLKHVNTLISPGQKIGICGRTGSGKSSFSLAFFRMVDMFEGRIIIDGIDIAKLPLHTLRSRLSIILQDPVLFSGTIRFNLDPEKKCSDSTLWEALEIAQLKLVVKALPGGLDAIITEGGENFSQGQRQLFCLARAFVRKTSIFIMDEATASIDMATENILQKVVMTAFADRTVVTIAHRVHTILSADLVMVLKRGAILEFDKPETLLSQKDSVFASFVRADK
Chain of rat SUR2A (Q63563 whole entry): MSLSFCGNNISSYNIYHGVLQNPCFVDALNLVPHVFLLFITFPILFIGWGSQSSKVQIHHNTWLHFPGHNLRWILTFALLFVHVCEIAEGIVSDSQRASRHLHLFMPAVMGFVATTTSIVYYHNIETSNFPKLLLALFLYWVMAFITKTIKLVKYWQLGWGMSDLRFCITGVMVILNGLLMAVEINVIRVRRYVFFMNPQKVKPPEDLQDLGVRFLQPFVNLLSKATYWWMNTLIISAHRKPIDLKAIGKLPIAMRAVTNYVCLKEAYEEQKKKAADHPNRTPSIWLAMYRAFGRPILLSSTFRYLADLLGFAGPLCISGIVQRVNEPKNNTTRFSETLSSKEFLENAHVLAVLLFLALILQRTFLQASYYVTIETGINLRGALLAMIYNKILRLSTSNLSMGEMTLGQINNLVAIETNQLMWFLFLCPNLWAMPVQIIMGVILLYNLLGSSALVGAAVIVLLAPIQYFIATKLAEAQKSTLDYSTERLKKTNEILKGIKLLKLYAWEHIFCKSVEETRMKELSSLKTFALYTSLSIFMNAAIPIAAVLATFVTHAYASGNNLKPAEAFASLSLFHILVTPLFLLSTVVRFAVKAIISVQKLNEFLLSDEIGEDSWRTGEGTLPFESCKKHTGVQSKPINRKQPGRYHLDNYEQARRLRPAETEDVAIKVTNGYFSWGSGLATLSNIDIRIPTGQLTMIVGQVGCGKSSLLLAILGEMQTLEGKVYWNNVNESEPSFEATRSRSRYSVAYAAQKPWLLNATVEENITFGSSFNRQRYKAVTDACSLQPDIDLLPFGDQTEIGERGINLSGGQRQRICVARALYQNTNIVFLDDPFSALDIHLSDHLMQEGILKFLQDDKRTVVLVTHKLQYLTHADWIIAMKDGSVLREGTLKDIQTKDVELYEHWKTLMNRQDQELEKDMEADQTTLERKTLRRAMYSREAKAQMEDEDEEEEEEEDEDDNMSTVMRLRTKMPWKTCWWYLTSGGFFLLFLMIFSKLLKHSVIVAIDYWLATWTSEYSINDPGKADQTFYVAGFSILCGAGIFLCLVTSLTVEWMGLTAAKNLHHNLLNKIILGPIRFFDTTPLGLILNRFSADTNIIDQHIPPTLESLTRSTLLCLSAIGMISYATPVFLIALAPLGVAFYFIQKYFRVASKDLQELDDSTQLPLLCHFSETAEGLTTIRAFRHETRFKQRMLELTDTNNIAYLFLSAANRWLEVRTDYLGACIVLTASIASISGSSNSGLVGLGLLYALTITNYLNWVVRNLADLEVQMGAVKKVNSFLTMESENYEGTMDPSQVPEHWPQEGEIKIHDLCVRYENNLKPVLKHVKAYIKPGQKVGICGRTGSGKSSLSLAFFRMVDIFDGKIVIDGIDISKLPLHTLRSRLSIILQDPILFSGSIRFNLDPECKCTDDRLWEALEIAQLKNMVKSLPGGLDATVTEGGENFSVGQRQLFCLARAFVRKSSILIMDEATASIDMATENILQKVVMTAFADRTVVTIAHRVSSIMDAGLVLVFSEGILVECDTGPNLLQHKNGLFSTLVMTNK

On to `CN/C(=N\S(=O)(=O)c1ccc(Cl)cc1)N1C[C@H](c2ccccc2)C(c2ccc(Cl)cc2)=N1`, for which the Ki in assay [1] (setting [5]) is 0.501 µM. In assay [2], the “% Inhibition 0-30 (insulin secretion)” value turned out to be 42% and the “% Inhibition 30-60 (insulin secretion)” value is given as 22%.

For `CON/C(=N\S(=O)(=O)c1ccc(Cl)cc1)N1C[C@H](c2cccc(F)c2)C(c2ccc(Cl)cc2)=N1` (stereo in doubt) [4-Chloro-N-{[3-(4-chloro-phenyl)-4-(3-fluoro-phenyl)-4,5-dihydro-pyrazol-1-yl]-methoxyamino-methylene}-benzenesulfonamide], in assay [2], the “% Inhibition 0-30 (insulin secretion)” value worked out at 90% and the “% Inhibition 30-60 (insulin secretion)” value was found to be 95%.

In the case of `CN/C(=N\S(=O)(=O)c1ccc(Cl)cc1)N1C[C@@H](c2ccccc2)C(c2ccc(Cl)cc2)=N1` (stereo in doubt) [4-Chloro-N-{[3-(4-chloro-phenyl)-4-phenyl-4,5-dihydro-pyrazol-1-yl]-methylamino-methylene}-benzenesulfonamide], in assay [2], the “% Inhibition 0-30 (insulin secretion)” value is 59% and the “% Inhibition 30-60 (insulin secretion)” value is 25%.

Regarding `CCCCCCC(C)(C)c1ccc([C@@H]2C[C@H](O)CC[C@H]2CCCO)c(O)c1` (stereo in doubt) [CP55940, 5-(1,1-Dimethyl-heptyl)-2-[5-hydroxy-2-(3-hydroxy-propyl)-cyclohexyl]-phenol, reference compound], in assay [1] (setting [5]), the Ki was 5.01 µM. In assay [2], the “% Inhibition 0-30 (insulin secretion)” value was 91% and the “% Inhibition 30-60 (insulin secretion)” value came out at 56%.

Consider `O=C(NN1CCCCC1)c1nc(-c2ccc(Cl)cc2Cl)n(-c2ccc(Cl)cc2)c1CO` [1-(4-Chloro-phenyl)-2-(2,4-dichloro-phenyl)-5-hydroxymethyl-1H-imidazole-4-carboxylic acid piperidin-1-ylamide], for which the Ki was 0.631 µM in assay [3] (setting [6]) and 100 µM in assay [1] (setting [5]). Moreover, the pKi (usually −log10 of the Ki, conventionally taken in molar units) in assay [4] worked out at 4.7.

As for `Cc1c(C(=O)NN2CCCCCC2)nc(-c2ccc(Cl)cc2Cl)n1-c1ccc(Cl)cc1` [1-(4-Chloro-phenyl)-2-(2,4-dichloro-phenyl)-5-methyl-1H-imidazole-4-carboxylic acid azepan-1-ylamide], the Ki in assay [3] (setting [6]) was 0.0251 µM; in assay [1] (setting [5]), 6.31 µM. This compound showed a pKi in assay [4] of 5.7.

Turning to `CSc1c(C(=O)NC2CCCCC2)nc(-c2ccc(Cl)cc2Cl)n1-c1ccc(Cl)cc1` [1-(4-Chloro-phenyl)-2-(2,4-dichloro-phenyl)-5-methylsulfanyl-1H-imidazole-4-carboxylic acid cyclohexylamide], in assay [3], the “Affinity to CB2” value is recorded as 6.6. For the same compound, the Ki in assay [1] (setting [5]) is 0.501 µM. This compound also registered a pKi in assay [4] (setting [7]) of 5.8.

Turning to `CSc1c(C(=O)NN2CCCCC2)nc(-c2ccc(Cl)cc2Cl)n1-c1ccc(Cl)cc1` [1-(4-Chloro-phenyl)-2-(2,4-dichloro-phenyl)-5-methylsulfanyl-1H-imidazole-4-carboxylic acid piperidin-1-ylamide], the Ki was 1 µM in assay [3] (setting [6]) and 7.94 µM in assay [1] (setting [5]). Also, the negative logarithm of the Ki (pKi) in assay [4] is listed as 5.6.

As to `CCc1c(C(=O)NC2CCCCC2)nc(-c2ncccc2C)n1-c1ccc(Cl)cc1` [1-(4-Chloro-phenyl)-5-ethyl-2-(3-methyl-pyridin-2-yl)-1H-imidazole-4-carboxylic acid cyclohexylamide], the Ki is 0.794 µM in assay [3] and 100 µM in assay [1]. The pKi in assay [4] was determined as 5.5.

`CCc1c(C(=O)NN2CCCCC2)nc(-c2ncccc2C)n1-c1ccc(Cl)cc1` [1-(4-Chloro-phenyl)-5-ethyl-2-(3-methyl-pyridin-2-yl)-1H-imidazole-4-carboxylic acid piperidin-1-ylamide]: the Ki was 0.251 µM in assay [3] (setting [6]) and 100 µM in assay [1] (setting [5]). Besides, the pKi in assay [4] is on record as 4.8.

For the compound `N=C(N)C1=NN(c2ccc(Cl)cc2)C(c2ccccc2)C1` (centres unmarked) [1-(4-Chloro-phenyl)-5-phenyl-4,5-dihydro-1H-pyrazole-3-carboxamidine], the Ki was 0.501 µM in assay [3] (setting [6]) and 100 µM in assay [1] (setting [5]). Besides, the pKi in assay [4] came out at 4.0.

Consider `CCc1c(C(=O)NC2CCCCC2)nc(-c2ccc(C)n2C)n1-c1ccccc1` [2-(1,5-Dimethyl-1H-pyrrol-2-yl)-5-ethyl-1-phenyl-1H-imidazole-4-carboxylic acid cyclohexylamide], for which the Ki in assay [3] (setting [6]) is 0.158 µM; in assay [1] (setting [5]), 100 µM. The compound further returned a pKi in assay [4] (setting [7]) of 4.0.

Regarding `Cc1c(C(=O)NN2CCCCC2)nc(-c2ccc(Cl)cc2Cl)n1-c1ccccn1` [2-(2,4-Dichloro-phenyl)-5-methyl-1-pyridin-2-yl-1H-imidazole-4-carboxylic acid piperidin-1-ylamide], the Ki is 0.631 µM in assay [3] (setting [6]) and 100 µM in assay [1] (setting [5]). The compound also showed a pKi in assay [4] of 4.1.

`NC(Cc1ccc(Cl)c(Cl)c1)C(=O)N1CC(c2ccccc2)C(c2ccc(Cl)cc2)=N1` (centres unmarked) [2-Amino-1-[3-(4-chloro-phenyl)-4-phenyl-4,5-dihydro-pyrazol-1-yl]-3-(3,4-dichloro-phenyl)-propan-1-one]: the Ki is 0.631 µM in assay [3] (setting [6]) and 3.98 µM in assay [1] (setting [5]). Also, the pKi in assay [4] worked out at 4.8.

Regarding `CC(C)(CO)CN/C(=N\S(=O)(=O)c1ccc(Cl)cc1)N1CC(c2ccccc2)C(c2ccc(Cl)cc2)=N1` (centres unmarked) [4-Chloro-N-[[3-(4-chloro-phenyl)-4-phenyl-4,5-dihydro-pyrazol-1-yl]-(3-hydroxy-2,2-dimethyl-propylamino)-methylene]-benzenesulfonamide], the Ki was 0.794 µM in assay [3] (setting [6]) and 31.6 µM in assay [1] (setting [5]). In addition, the pKi in assay [4] was 5.4.

Regarding `CN1CCC(CNC(=NS(=O)(=O)c2ccc(Cl)cc2)N2CC(c3ccccc3)C(c3ccc(Cl)cc3)=N2)C1` (centres unmarked) [4-Chloro-N-{[3-(4-chloro-phenyl)-4-phenyl-4,5-dihydro-pyrazol-1-yl]-[(1-methyl-pyrrolidin-3-ylmethyl)-amino]-methylene]-benzenesulfonamide], the Ki in assay [3] (setting [6]) and in assay [1] (setting [5]) was 1 µM each time. In addition, the pKi in assay [4] stood at 4.8.

As to `O=S(=O)(N=C(NCc1cccnc1)N1CC(c2ccccc2)C(c2ccc(Cl)cc2)=N1)c1ccc(Cl)cc1` (centres unmarked) [4-Chloro-N-{[3-(4-chloro-phenyl)-4-phenyl-4,5-dihydro-pyrazol-1-yl]-[(pyridin-3-ylmethyl)-amino]-methylene}-benzenesulfonamide], the Ki is 0.501 µM in assay [3] (setting [6]) and 1.26 µM in assay [1] (setting [5]). The pKi in assay [4] turned out to be 5.7.

Regarding `Cc1c(C=C(c2cc(F)cc(F)c2)S(C)(=O)=O)nn(-c2ccc(Cl)cc2Cl)c1-c1ccc(Br)cc1` [5-(4-Bromo-phenyl)-1-(2,4-dichloro-phenyl)-3-(2-(3,5-difluoro-phenyl)-2-methanesulfonyl-vinyl]-4-methyl-1H-pyrazole], the Ki is 1.26 µM in assay [3] (setting [6]) and 100 µM in assay [1] (setting [5]). Further, the pKi in assay [4] worked out at 4.0.

Regarding `O=C(NN1CCCCC1)C1=NN(c2ccc(Cl)cc2Cl)C(c2ccc(Cl)cc2)C1` (centres unmarked) [5-(4-Chloro-phenyl)-1-(2,4-dichloro-phenyl)-4,5-dihydro-1H-pyrazole-3-carboxylic acid piperidine-1-ylamide], the Ki in assay [3] (setting [6]) was 0.794 µM; in assay [1] (setting [5]), 3.98 µM. Further, in assay [4], the pKi is recorded as 5.6.

Regarding `Cn1c(C(=O)NN2CCCCC2)nc(-c2cc(Cl)ccc2Cl)c1-c1ccc(Cl)cc1` [5-(4-Chloro-phenyl)-4-(2,5-dichloro-phenyl)-1-methyl 1H-imidazole-2-carboxylic acid piperidin-1-ylamide], the Ki is 0.398 µM in assay [3] (setting [6]) and 25.1 µM in assay [1] (setting [5]). In assay [4], this compound showed a pKi of 5.0.

Take `C[C@H](NS(C)(=O)=O)c1ccc(S(=O)(=O)c2ccc(Cl)cc2S(=O)(=O)c2ccccc2F)cc1` [N-(1-{4-[4-Chloro-2-(2-fluoro-benzenesulfonyl)-benzenesulfonyl]-phenyl}-ethyl)-methanesulfonamide, reference compound]: the results for the Ki in assay [3] and in assay [1] (setting [5]) were 0.000501 µM and 1.26 µM, respectively. In assay [4], the pKi is reported as 4.7.

As to `NC(=NS(=O)(=O)c1ccc(Cl)cc1)N1CC(c2ccccc2)C(c2ccc(Cl)cc2)=N1` (centres unmarked) [N-{Amino-[3-(4-chloro-phenyl)-4-phenyl-4,5-dihydro-pyrazol-1-yl]-methylene}-4-chloro-benzenesulfonamide], the Ki in assay [3] is 0.398 µM; in assay [1] (setting [5]), 1 µM. For the same compound, the pKi in assay [4] came to 5.1.

With `CNC(=NS(=O)(=O)N1CCCCC1)N1CC(c2cccc(F)c2)C(c2ccc(Cl)cc2)=N1` (centres unmarked) [Piperidine-1-sulfonic acid [3-(4-chloro-phenyl)-4-(3-fluoro-phenyl)-4,5-dihydro-pyrazol-1-yl]-methylamino-methyleneamide], the figures for the Ki in assay [3] (setting [6]) and in assay [1] (setting [5]) were 0.794 µM and 31.6 µM, respectively. For the same compound, in assay [4], the pKi worked out at 6.3.

On to `Cc1c(C(=O)c2cccc3ccccc23)c2cccc3c2n1[C@H](CN1CCOCC1)CO3` [drawing 112, (2-Methyl-3-morpholin-4-ylmethyl-3,4-dihydro-5-oxa-2a-azacenaphthylen-1-yl)-naphthalen-1-yl-methanone, reference compound], for which, in assay [2], the “% Inhibition 0-30 (insulin secretion)” value is on record as 69% and the “% Inhibition 30-60 (insulin secretion)” value is recorded as 40%.

`CN/C(=N\S(=O)(=O)N1CCOCC1)N1CC(c2ccccc2)C(c2ccc(Cl)cc2)=N1` (centres unmarked) [drawing 118, Morpholine-4-sulfonic acid [3-(4-chloro-phenyl)-4-phenyl-4,5-dihydro-pyrazol-1-yl]-methylamino-methyleneamide]: in assay [2], the “% Inhibition 0-30 (insulin secretion)” value stood at 83% and the “% Inhibition 30-60 (insulin secretion)” value is 91%.

The values above are taken from US20070254863A1 (priority 2006, published 2007).
